Source: patent US20050176811A1, “Vitamin combination for providing protection during the chemotherapy and/or radio-therapy of malignant tumours” (priority 2002, published 2005)

Columns and labels:
[1] = tested on: stomach cancer at stage IV; set-up: concentration or dose not given beside the values; conditions: only 5-Fu, control group from older literature; cited from earlier work
[2] = tested on: white raceless male and female rats; test: Whole body gamma irradiation of rats at 11.4 Gy, comparison with mexamine; assay type: in vivo; conditions: radiation dose 11.4 Gy, agent 24 h before irradiation
Procedure: In order to compare the radiation protection according to the invention with the effect of conventional radiation protective agents white raceless male and female rats weighing from 150 to 180 g (age: 3 months) was subjected to whole body gamma irradiation at a dose of 11.4 Gy, the animals being protected according to the invention by administering the vitamin combination at the above-mentioned dose 24 hours before the irradiation (group I). […] A third group of rats was irradiation without administering a radiation protective agent (group III).

sarcoma 45 = conditions: rat, in vivo

O=c1[nH]cc(F)c(=O)[nH]1 [5-Fu, 5-Fluorouracil]
survival rate (%) after 3 months [1]: 86.7%
survival rate (%) after 6 months [1]: 66.7%
survival rate (%) after 9 months [1]: 40.0%
survival rate (%) after 12 months [1]: 20.0%
survival rate (%) after 18 months [1]: 13.7%
survival rate (%) after 22 months [1]: 0%

COc1ccc2[nH]cc(CCN)c2c1 [mexamine]
average life-span [2]: 8.2 ± 4 days
days at which 50% of animals are dead [2]: 50/8 days
days at which 100% of animals are dead [2]: 100/13 days

tocopherol [vitamin E]
distribution of vitamin E (tocopherol contents in organs) (sarcoma 45): accumulation of this vitamin in the tumour
